The record followed here is US11028085B2, “Substituted isoindolin-1-ones and 2,3-dihydro-1h-pyrrolo[3,4-c]pyridin-1-ones as hpk1 antagonists” (Nimbus Saturn, Inc., priority 2019, dated 2021).

SMILES strings stand for the structures. A value given as a limit tells only on which side of the number the result lay.

The target of the test is HPK1 (Homo sapiens (Human), UniProt Q92918). Kind of test: HPK1 biochemical enzyme assay (microfluidic mobility shift assay). The following applies: 1.5 nM HPK1, ATP 1 mM final, 60 min at RT, Caliper EZ Reader; read-out: HPK1 1000UMATP caliper IC50. On the procedure: HPK1 biochemical enzyme assay: HPK1 enzyme inhibition was measured using a microfluidic mobility shift assay. […] Test compounds were titrated in ten point curves (top final assay concentration […]), and preincubated with enzyme/substrate mix for 30 min prior to initiation of the reaction by addition of ATP (1 mM final concentration) and substrate (1 μM final concentration; Carna Biosciences) diluted in assay buffer supplemented by MgCl2 (final assay concentration of 5 mM). Following 60 min incubation at RT, the reaction was terminated by addition of 60 µl/well termination buffer (Carna Biosciences) and signal determination using a Caliper EZ Reader (Perkin Elmer, UK). […] The compound numbers correspond to the compound numbers in Table 1.
HPK1, sequence (Q92918 whole entry): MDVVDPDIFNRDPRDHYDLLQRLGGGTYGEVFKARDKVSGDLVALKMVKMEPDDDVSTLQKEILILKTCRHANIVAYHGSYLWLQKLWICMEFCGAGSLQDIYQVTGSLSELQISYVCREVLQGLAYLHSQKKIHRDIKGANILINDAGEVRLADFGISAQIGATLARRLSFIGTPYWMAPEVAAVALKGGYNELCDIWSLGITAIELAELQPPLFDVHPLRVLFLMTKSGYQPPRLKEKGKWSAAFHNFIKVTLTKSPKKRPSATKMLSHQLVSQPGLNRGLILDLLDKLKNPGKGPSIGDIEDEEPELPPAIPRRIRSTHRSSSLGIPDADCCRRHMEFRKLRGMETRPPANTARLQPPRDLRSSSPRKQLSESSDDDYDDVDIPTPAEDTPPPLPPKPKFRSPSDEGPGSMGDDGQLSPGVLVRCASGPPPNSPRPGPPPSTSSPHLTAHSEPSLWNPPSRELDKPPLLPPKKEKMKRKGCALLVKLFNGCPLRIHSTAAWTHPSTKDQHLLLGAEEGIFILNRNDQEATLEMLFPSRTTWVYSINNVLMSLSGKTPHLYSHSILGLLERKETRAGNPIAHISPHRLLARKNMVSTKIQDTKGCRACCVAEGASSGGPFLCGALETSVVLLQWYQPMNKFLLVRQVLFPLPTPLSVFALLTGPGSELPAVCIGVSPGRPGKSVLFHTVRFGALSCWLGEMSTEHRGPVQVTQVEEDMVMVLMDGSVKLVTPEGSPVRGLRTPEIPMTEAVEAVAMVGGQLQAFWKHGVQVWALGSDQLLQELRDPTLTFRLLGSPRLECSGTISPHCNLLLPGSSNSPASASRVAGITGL
For the molecule `Cc1ccc2c(-c3ccc(Nc4ccc(CN5CCOCC5)cn4)c4c3CNC4=O)cnn2c1` [I-469, 4-(6-methylpyrazolo[1,5-a]pyridin-3-yl)-7-[[5-(morpholino-methyl)-2-pyridyl]amino] isoindolin-1-one], the IC50 was under 100 nM. Under `O=C1NCc2c(-c3cnc4ccccn34)ccc(Nc3ccc(N4CCC(O)CC4)cn3)c21` [I-125, 7-[[5-(4-hydroxy-1-piperidyl)-2-pyridyl]amino]-4-imidazo[1,2-a]pyridin-3-yl-isoindolin-1-one] stands under 100 nM; under `CN1CC(Oc2nc(Nc3ccc(-c4cnc5cc(F)ccn45)c4c3C(=O)NC4)ccc2[C@@H]2CCOC2)C1` [I-816, (S)-4-(7-fluoroimidazo [1,2-a]pyridin-3-yl)-7-((6-((1-methylazetidin-3-yl]oxy)-5-(THF-3-yl)pyridin-2-yl)amino)isoin-dolin-1-one], under 100 nM.

One may read the IC50 as the concentration that inhibits the measured activity by half.
